In assay [1] the test system is Monoclonal Antibody F12 (FucosylGM1). The experiment in a line: Dot-blot immune stain of carbohydrates with monoclonal antibody F12. It is filed as binding. Conditions: 0.5 μg antigen spotted.
Assay [2] concerns Monoclonal Antibody BR 96 (Le^y related). Briefly: Dot-blot immune stain of carbohydrates with monoclonal antibody BR 96. It is filed as binding. Conditions: for Binding with BR 96 (Le^y related) by dot-blot: 0.5 μg antigen spotted, BR 96 diluted 1:500. Here is the method: 0.5 μg KH-1 ceramide and other Ley antigen and unrelated antigens were spotted on nitrocellulose strips. Dot blot Immune staining was performed monoclonal antibody BR 96 after blocked with 6% bovine serum albumin in PBS for 1 h and incubated with antibody BR 96 (diluted 1:500 in PBS) overnight at room temperature. The strips were washed with PBS containing 0.05% Tween 20 and incubated with anti-mouse IgG antibody conjugated with horseradish peroxidase at 1:200 dilution for 3 h at room temperature. Then the strips were washed with PBS-0.05% Tween 20 and developed with 4-chloro-1-naphtol-H2O2.

Take KH-1 antigen [KH-1 ceramide]: in assay [1], the “Binding with F12 (FucosylGM1) by dot-blot” value is recorded as “negative”. Further, the “Binding with BR 96 (Le^y related) by dot-blot” value in assay [2] is reported as “very strong”. Also, the “Reaction with BR 96 antibody by dot-blot” value in assay [2] (compared with other Le^y related antigens) is recorded as “reacted very strongly”.
For the substance Globo H ceramide [reference compound], in assay [1], the “Binding with F12 (FucosylGM1) by dot-blot” value is on record as “negative”. In addition, the “Binding with BR 96 (Le^y related) by dot-blot” value in assay [2] is “negative”.

(Values after patent US20020006900A1, “Colon cancer KH-1 and N3 antigens” (priority 1997, published 2002).)
